Experimental data as given in ChEMBL document CHEMBL4651402, “Screening of ~5500 FDA-approved drugs and clinical candidates for anti-SARS-CoV-2 activity” (2021).
Structures can show the parent of a compound that is named as a salt.

Test system: SARS-CoV-2
Test: microbe, parasite or virus in culture
Conditions: Severe acute respiratory syndrome coronavirus 2, Vero C1008, 48 h

Structure (SMILES) | IC50 | IC50 (read-out: pIC50 (converted))
CCOCc1nc2c(N)nc3ccccc3c2n1CC(C)(C)O [RESIQUIMOD] | > 20 µM | > 20 µM
CN(C)Cc1ccc(S(=O)(=O)n2ccc(/C=C/C(=O)NO)c2)cc1 [RESMINOSTAT] | > 20 µM | > 20 µM
Oc1cccc(O)c1 [RESORCINOL] | > 20 µM | > 20 µM
Oc1ccc(/C=C/c2cc(O)cc(O)c2)cc1 [RESVERATROL] | > 20 µM | > 20 µM
CCCCCC(O)c1cccc(OCc2ccc3ccccc3n2)c1 (centres undefined) [REV-5901] | > 20 µM | > 20 µM
CC(C)(C(=O)NCC(F)(F)C(F)(F)F)C(=O)N[C@@H]1C(=O)Nc2ccccc2-c2ccccc21 [RG-4733] | > 20 µM | > 20 µM
COC1=C(O)C(=O)c2c(cc3oc(C(C)=O)c(O)c3c2O)C1=O [RHODOCLADONIC ACID] | > 20 µM | > 20 µM
NC(=O)c1ncn([C@@H]2O[C@H](CO)[C@@H](O)[C@H]2O)n1 [RIBAVIRIN] | > 50.1 µM | > 50.1 µM
NC[C@H]1O[C@H](O[C@H]2[C@H](O[C@@H]3O[C@H](CO)[C@@H](O)[C@H]3O)[C@@H](O)[C@H](N)C[C@@H]2N)[C@H](N)[C@@H](O)[C@@H]1O [RIBOSTAMYCIN] | > 20 µM | > 20 µM
COc1ccn(C)c(=O)c1C#N [RICININE] | > 20 µM | > 20 µM
O=C(CCCCCCNC(=O)c1cnc(N(c2ccccc2)c2ccccc2)nc1)NO [RICOLINOSTAT] | > 20 µM | > 20 µM
O=C(O)CCCCO/N=C(/c1cccnc1)c1cccc(C(F)(F)F)c1 [RIDOGREL] | > 20 µM | > 20 µM
CO[C@H]1/C=C/O[C@@]2(C)Oc3c(C)c(O)c4c(c3C2=O)C2=NC3(CCN(CC(C)C)CC3)NC2=C(NC(=O)/C(C)=C\C=C\[C@H](C)[C@H](O)[C@@H](C)[C@@H](O)[C@@H](C)[C@H](OC(C)=O)[C@@H]1C)C4=O [RIFABUTIN] | > 20 µM | > 20 µM
CO[C@H]1/C=C/O[C@@]2(C)Oc3c(C)c(O)c4c(O)c(c(/C=N/N5CCN(C)CC5)c(O)c4c3C2=O)NC(=O)/C(C)=C\C=C\[C@H](C)[C@H](O)[C@@H](C)[C@@H](O)[C@@H](C)[C@H](OC(C)=O)[C@@H]1C [RIFAMPIN] | > 20 µM | > 20 µM
COc1cc(OC)c(/C=C/S(=O)(=O)Cc2ccc(OC)c(NCC(=O)O)c2)c(OC)c1 [RIGOSERTIB] | > 20 µM | > 20 µM
CN1CCN(C2=Cc3cc(Cl)ccc3/C(=C/C#N)c3ccccc32)CC1 [RILAPINE] | > 20 µM | > 20 µM
CS(=O)(=O)CCCn1c(Cn2c(=O)n(CC(F)(F)F)c3ccncc32)cc2cc(Cl)ccc21 [RILEMATOVIR] | > 20 µM | > 20 µM
C1COC(NC(C2CC2)C2CC2)=N1 [RILMENIDINE] | > 20 µM | > 20 µM
Nc1nc2ccc(OC(F)(F)F)cc2s1 [RILUZOLE] | > 20 µM | > 20 µM

Structure (SMILES) | IC50 | IC50 (read-out: pIC50 (converted))
CC(N)C12CC3CC(CC(C3)C1)C2 (centres undefined) [RIMANTADINE] | > 20 µM | > 20 µM
N[C@@H]1c2cccnc2[C@H](OC(=O)N2CCC(n3c(=O)[nH]c4ncccc43)CC2)CC[C@H]1c1cccc(F)c1F [RIMEGEPANT] | > 20 µM | > 20 µM
CCC(=O)[C@@]1(C)[C@H](C)C[C@H]2[C@@H]3CCC4=CC(=O)C=C[C@]4(C)[C@H]3[C@@H](O)C[C@@]21C [RIMEXOLONE] | > 20 µM | > 20 µM
Oc1ccc(C(O)C2CCCCN2)cc1O (centres undefined) [RIMITEROL] | > 20 µM | > 20 µM
Cc1c(C(=O)NN2CCCCC2)nn(-c2ccc(Cl)cc2Cl)c1-c1ccc(Cl)cc1 [RIMONABANT] | > 20 µM | > 20 µM
O=P(O)(O)C(O)(Cc1cccnc1)P(=O)(O)O [RISEDRONIC ACID] | > 20 µM | > 20 µM
Cc1ccc(COC(=O)N2CC[C@H](CNc3ncccn3)[C@H](F)C2)cc1 [RISLENEMDAZ] | > 20 µM | > 20 µM
CCCOC(=O)c1ccc(N)cc1 [RISOCAINE] | > 20 µM | > 20 µM
Cc1nc2n(c(=O)c1CCN1CCC(c3noc4cc(F)ccc34)CC1)CCCC2 [RISPERIDONE] | > 20 µM | > 20 µM
Cc1nc2sccn2c(=O)c1CCN1CCC(=C(c2ccc(F)cc2)c2ccc(F)cc2)CC1 [RITANSERIN] | > 20 µM | > 20 µM
C=CC(=O)N1C[C@H](Nc2ncnc3[nH]ccc23)CC[C@@H]1C [RITLECITINIB] | > 20 µM | > 20 µM
CC(NCCc1ccc(O)cc1)C(O)c1ccc(O)cc1 (centres undefined) [RITODRINE HYDROCHLORIDE] | > 20 µM | > 20 µM
CC(C)c1nc(CN(C)C(=O)N[C@H](C(=O)N[C@@H](Cc2ccccc2)C[C@H](O)[C@H](Cc2ccccc2)NC(=O)OCc2cncs2)C(C)C)cs1 [RITONAVIR] | > 50.1 µM | > 50.1 µM
CCN(C)C(=O)Oc1cccc([C@H](C)N(C)C)c1 [RIVASTIGMINE] | > 20 µM | > 20 µM
COCc1cccc(C[C@H](O)/C=C/[C@H]2[C@H](O)CC(=O)[C@@H]2CCSCCCC(=O)OC)c1 [RIVENPROST] | > 20 µM | > 20 µM
N#CC1(c2ccc(NC(=O)c3cccnc3NCc3ccncc3)cc2)CCCC1 [RIVOCERANIB] | > 20 µM | > 20 µM
CN(C)CCc1c[nH]c2ccc(Cn3cncn3)cc12 [RIZATRIPTAN] | > 20 µM | > 20 µM
[N-]=[N+]=N[C@]1(CO)O[C@@H](n2ccc(N)nc2=O)[C@@H](F)[C@@H]1O [RO-0622] | > 20 µM | > 20 µM
CCCCOc1cc(CC2CNC(=O)N2)ccc1OC (centres undefined) [RO-201724] | > 20 µM | > 20 µM

Structure (SMILES) | IC50 | IC50 (read-out: pIC50 (converted))
C=CC(=O)Nc1cccc(Nc2nc(Nc3ccc(N4CCN(C(C)=O)CC4)cc3OC)ncc2C(F)(F)F)c1 [ROCILETINIB] | > 20 µM | > 20 µM
CS(=O)(=O)c1ccc(C2=C(c3ccccc3)C(=O)OC2)cc1 [ROFECOXIB] | > 20 µM | > 20 µM
O=C(Nc1c(Cl)cncc1Cl)c1ccc(OC(F)F)c(OCC2CC2)c1 [ROFLUMILAST] | > 20 µM | > 20 µM
COCc1c(-c2cc3cc(C)cc(OC)c3s2)c2c(N)ncnn2c1CN1CCNC(=O)C1 [ROGARATINIB] | > 20 µM | > 20 µM
C[C@@H](OC[C@@]1(c2ccccc2)CC[C@]2(CCC(=O)N2)CN1)c1cc(C(F)(F)F)cc(C(F)(F)F)c1 [ROLAPITANT] | > 20 µM | > 20 µM
COc1ccc(C2CNC(=O)C2)cc1OC1CCCC1 (centres undefined) [ROLIPRAM] | > 20 µM | > 20 µM
Cn1c([N+](=O)[O-])cnc1COC(N)=O [RONIDAZOLE] | > 20 µM | > 20 µM
CCCN(CCC)CCc1cccc2c1CC(=O)N2 [ROPINIROLE] | > 20 µM | > 20 µM
CN(C(=O)c1c(O)c2ccccc2n(C)c1=O)c1ccccc1 [ROQUINIMEX] | > 20 µM | > 20 µM
CN(CCOc1ccc(CC2SC(=O)NC2=O)cc1)c1ccccn1 (centres undefined) [ROSIGLITAZONE] | > 20 µM | > 20 µM
O=C(/C=C/c1ccc(O)c(O)c1)O[C@H](Cc1ccc(O)c(O)c1)C(=O)O [ROSMARINIC ACID] | > 20 µM | > 20 µM
CCn1cc(C(=O)O)c(=O)c2ccc(-c3ccncc3)cc21 [ROSOXACIN] | > 20 µM | > 20 µM
C[C@]12CC[C@H](O)C[C@H]1CC[C@@H]1[C@@H]2CC[C@]2(C)[C@@](O)(c3ccoc3)CC[C@]12O [ROSTAFUROXIN] | > 20 µM | > 20 µM
CN(C)CCO[C@@H](c1ccc(Cl)cc1)c1ccccn1 [ROTOXAMINE] | > 20 µM | > 20 µM
Cc1nc(C(=O)NCC(=O)O)c(O)c2ccc(Oc3ccccc3)cc12 [ROXADUSTAT] | > 20 µM | > 20 µM
O=[N+]([O-])c1cc([As](=O)(O)O)ccc1O [ROXARSONE] | > 20 µM | > 20 µM
Oc1ccc2[nH]cc(CCCCN3CC=C(c4ccccc4)CC3)c2c1 [ROXINDOLE] | > 20 µM | > 20 µM
CC[C@H]1OC(=O)[C@H](C)[C@@H](O[C@H]2C[C@@](C)(OC)[C@@H](O)[C@H](C)O2)[C@H](C)[C@@H](O[C@@H]2O[C@H](C)C[C@H](N(C)C)[C@H]2O)[C@](C)(O)C[C@@H](C)/C(=N\OCOCCOC)[C@H](C)[C@@H](O)[C@]1(C)O [ROXITHROMYCIN] | > 20 µM | > 20 µM
CN1C(=O)CC2(CCN(CCCC(=O)c3ccc(F)cc3)CC2)C1=O [ROXOPERONE] | > 20 µM | > 20 µM
